According to patent US20100074955A1, “Combination of NMDA-Receptor Ligand and a Compound With 5-HT6 Receptor Affinity” (LABORATORIOS DEL DR. ESTEVE, S.A., priority 2006, published 2010):

Tested on: adult male Lister Hooded rats
Experiment: Test of novel object discrimination in rats
Format: in vivo, rat
Details: memantine alone 5, 10, 15 and 20 mg/kg i.p. vs vehicle, 20 minutes before trial, 4 hour inter-trial interval, FIG. 1
Description: Adult male Lister Hooded rats (Charles River, UK) weighing 200-350 g at the start of the experiment were housed in groups of four on a 12:12 h light:dark cycle (lights on at 07:00 h). Food and water were available ad libitum throughout the study, and the room temperature (21±2° C.) and relative humidity (45-65%) were kept constant. In one experiment, rats received i.p. injections (2 ml/kg, −20 minutes prior to the familiarisation trial) of memantine (n=12) at 5, 10, 15 and 20 mg/kg compared with vehicle (0.5% methylcellulose in saline, 2 ml/kg), such that all rats received all doses of the compound in a random order with each behavioural test occurring at seven day intervals.
In the combination study, a group of rats (n=12 each) received injection of a sub-effective dose of compound 841 (1 mg/kg i.p.) or vehicle (0.5% methylcellulose in saline, 2 ml/kg), either alone or combined with memantine (5 mg/kg). Each drug combination was administered to all rats in the group over a period of 4 weeks in a random order using a seven day behavioural test interval. […]

CC12CC3CC(C)(C1)CC(N)(C3)C2 [memantine, 1-amino-3,5-dimethyladamantane]
discrimination of a novel object against a familiar object (time spent exploring each object): high amounts of said compound are necessary for rats to discriminate a novel object against a familiar object
